Activity calls are given as the source filed them. The rule behind the calls is not given here.
How the values were obtained:
ECa-109 cell line [1] = assay: Induction of ROS-mediated apoptosis in human ECa-109 cells assessed as viable cells at 4 uM incubated for 48 hrs in presence of NAC by annexin V-PE and 7-AAD staining based flow cytometry analysis (reference value: 94 %); type: functional; conditions: read-out: Activity
[2] = Selectivity index, ratio of IC50 for cytotoxicity against human HL7702 cells to IC50 for cytotoxicity against human ECa-109 cells
ECa-109 cell line [3] = assay: Induction of apoptosis in human ECa-109 cells assessed as late apoptotic cells at 1 uM incubated for 48 hrs by annexin-V-FITC and PI staining based fluorescence microscopic analysis (reference value: 2.01 %); type: functional
ECa-109 cell line [4] = assay: Induction of apoptosis in human ECa-109 cells assessed as necrotic cells at 1 uM incubated for 48 hrs by annexin-V-FITC and PI staining based fluorescence microscopic analysis (reference value: 1.19 %); type: functional
ECa-109 cell line [5] = assay: Induction of apoptosis in human ECa-109 cells assessed as viable cells at 2 uM incubated for 48 hrs by annexin-V-FITC and PI staining based fluorescence microscopic analysis (reference value: 95.8 %); type: functional; conditions: read-out: Activity
ECa-109 cell line [6] = assay: Induction of apoptosis in human ECa-109 cells assessed as late apoptotic cells at 4 uM incubated for 48 hrs by annexin-V-FITC and PI staining based fluorescence microscopic analysis (reference value: 2.01 %); type: functional
ECa-109 cell line [7] = assay: Induction of ROS-mediated apoptosis in human ECa-109 cells assessed as viable cells at 2 uM incubated for 48 hrs by annexin V-PE and 7-AAD staining based flow cytometry analysis (reference value: 92.7 %); type: functional; conditions: read-out: Activity
ECa-109 cell line [8] = assay: Induction of ROS-mediated apoptosis in human ECa-109 cells assessed as early apoptotic cells at 2 uM incubated for 48 hrs by annexin V-PE and 7-AAD staining based flow cytometry analysis (reference value: 2.70 %); type: functional
ECa-109 cell line [9] = assay: Induction of ROS-mediated apoptosis in human ECa-109 cells assessed as late apoptotic cells at 2 uM incubated for 48 hrs by annexin V-PE and 7-AAD staining based flow cytometry analysis (reference value: 3.89 %); type: functional
ECa-109 cell line [10] = assay: Induction of ROS-mediated apoptosis in human ECa-109 cells assessed as necrotic cells at 1 uM incubated for 48 hrs in presence of NAC by annexin V-PE and 7-AAD staining based flow cytometry analysis (reference value: 1.09 %); type: functional
ECa-109 cell line [11] = assay: Induction of cell cycle arrest in human ECa-109 cells assessed as accumulation in G0/G1 phase at 2 uM incubated for 48 hrs by PI staining based flow cytometry analysis (reference value: 52.28 %); type: functional
ECa-109 cell line [12] = assay: Induction of cell cycle arrest in human ECa-109 cells assessed as accumulation in G2/M phase at 4 uM incubated for 48 hrs by PI staining based flow cytometry analysis (reference value: 8.39 %); type: functional
ECa-109 cell line [13] = assay: Induction of apoptosis in human ECa-109 cells assessed as decrease in caspase-8 incubated for 48 hrs by Western blot analysis; type: functional, cell-based; conditions: dose 1-4 µM
ECa-109 cell line [14] = assay: Induction of apoptosis in human ECa-109 cells assessed as downregulation of Bcl-xl incubated for 48 hrs by Western blot analysis; type: functional, cell-based; conditions: dose 1-4 µM
SGC-7901 [15] = assay: Induction of apoptosis in human SGC-7901 cells assessed as concentrated chromatin at 1 to 4 uM incubated for 48 hrs by Hoechst staining based fluorescence microscopic analysis; type: functional, cell-based; conditions: dose 1-4 µM
SGC-7901 [16] = assay: Induction of apoptosis in human SGC-7901 cells assessed as late apoptotic cells at 2 uM incubated for 48 hrs by annexin-V-FITC and PI staining based fluorescence microscopic analysis (reference value: 3.87 %); type: functional
SGC-7901 [17] = assay: Induction of apoptosis in human SGC-7901 cells assessed as necrotic cells at 2 uM incubated for 48 hrs by annexin-V-FITC and PI staining based fluorescence microscopic analysis (reference value: 1.03 %); type: functional
SGC-7901 [18] = assay: Induction of apoptosis in human SGC-7901 cells assessed as viable cells at 4 uM incubated for 48 hrs by annexin-V-FITC and PI staining based fluorescence microscopic analysis (reference value: 93.8 %); type: functional; conditions: read-out: Activity
SGC-7901 [19] = assay: Induction of apoptosis in human SGC-7901 cells assessed as early apoptotic cells at 4 uM incubated for 48 hrs by annexin-V-FITC and PI staining based fluorescence microscopic analysis (reference value: 1.87 %); type: functional
SGC-7901 [20] = assay: Induction of apoptosis in human SGC-7901 cells assessed as late apoptotic cells at 4 uM incubated for 48 hrs by annexin-V-FITC and PI staining based fluorescence microscopic analysis (reference value: 3.87 %); type: functional
SGC-7901 [21] = assay: Induction of ROS-mediated apoptosis in human SGC-7901 cells assessed as necrotic cells at 2 uM incubated for 48 hrs by annexin V-PE and 7-AAD staining based flow cytometry analysis (reference value: 0.733 %); type: functional
SGC-7901 [22] = assay: Induction of ROS-mediated apoptosis in human SGC-7901 cells assessed as necrotic cells at 4 uM incubated for 48 hrs by annexin V-PE and 7-AAD staining based flow cytometry analysis (reference value: 0.733 %); type: functional
SGC-7901 [23] = assay: Induction of ROS-mediated apoptosis in human SGC-7901 cells assessed as necrotic cells at 1 uM incubated for 48 hrs in presence of NAC by annexin V-PE and 7-AAD staining based flow cytometry analysis (reference value: 0.623 %); type: functional
SGC-7901 [24] = assay: Induction of ROS-mediated apoptosis in human SGC-7901 cells assessed as late apoptotic cells at 4 uM incubated for 48 hrs in presence of NAC by annexin V-PE and 7-AAD staining based flow cytometry analysis (reference value: 3.45 %); type: functional
SGC-7901 [25] = assay: Induction of cell cycle arrest in human SGC-7901 cells assessed as accumulation in G0/G1 phase at 2 uM incubated for 48 hrs by PI staining based flow cytometry analysis (reference value: 57.39 %); type: functional
SGC-7901 [26] = assay: Induction of apoptosis in human SGC-7901 cells assessed as upregulation of Bax incubated for 48 hrs by Western blot analysis; type: functional, cell-based; conditions: dose 1-4 µM

COc1ccccc1Cn1n[n+](C)c2c1C(C)(C)[C@@H]1CC[C@]3(C)[C@H](CC[C@@H]4[C@H]5[C@H]6OC[C@@]5(CCC6(C)C)CC[C@]43C)[C@@]1(C)C2.[I-]
viability at 4 µM (ECa-109 cell line [1]): 13.8%
Ratio IC50 [2]: 1.53
Activity (ECa-109 cell line [3]): 12.9%
Activity (ECa-109 cell line [4]): 0.624%
viability at 2 µM (ECa-109 cell line [5]): 55.1%
Activity (ECa-109 cell line [6]): 92.2%
viability at 2 µM (ECa-109 cell line [7]): 55%
Activity (ECa-109 cell line [8]): 11.5%
Activity (ECa-109 cell line [9]): 28.7%
Activity (ECa-109 cell line [10]): 2.07%
Activity (ECa-109 cell line [11]): 42.96%
Activity (ECa-109 cell line [12]): 22.73%
Activity (ECa-109 cell line [13]): Dose-dependent effect
Activity (ECa-109 cell line [14]): Dose-dependent effect

C[n+]1nn(Cc2c(F)cccc2Cl)c2c1C[C@]1(C)[C@H]3CC[C@@H]4[C@H]5[C@H]6OC[C@@]5(CCC6(C)C)CC[C@@]4(C)[C@]3(C)CC[C@H]1C2(C)C.[I-]
Activity (SGC-7901 [15]): Active
Activity (SGC-7901 [16]): 8.46%
Activity (SGC-7901 [17]): 1.56%
viability at 4 µM (SGC-7901 [18]): 0.494%
Activity (SGC-7901 [19]): 2.07%
Activity (SGC-7901 [20]): 97.3%
Activity (SGC-7901 [21]): 0.956%
Activity (SGC-7901 [22]): 0.028%
Activity (SGC-7901 [23]): 1.21%
Activity (SGC-7901 [24]): 77.8%
Activity (SGC-7901 [25]): 74.64%
Activity (SGC-7901 [26]): Dose-dependent effect

From ChEMBL document CHEMBL4706545, “Antiproliferative effect of mitochondria-targeting allobetulin 1,2,3-triazolium salt derivatives and their mechanism of inducing apoptosis of cancer cells” (Eur J Med Chem, 2020)
